Laboratory results: ChEMBL document CHEMBL3351981, “Eleganketal A, a highly oxygenated dibenzospiroketal from the marine-derived fungus Spicaria elegans KLA03” (J Nat Prod, 2014)
pIC50: −log10 of the molar value.

How the values were obtained:
K562 = experiment: Cytotoxicity against human K562 cells; format: functional, cell-based
[1] = Cytotoxicity against human HL60 cells; format: functional, cell-based; conditions: HL-60
Influenza A virus = experiment: Antiviral activity against influenza A virus (A/Puerto Rico/8/34(H1N1)) infected in MDCK cells assessed as inhibition of virus-induced cytopathic effect after 48 hrs by crystal violet staining assay; format: functional, organism-based; conditions: A/Puerto Rico/8/1934(H1N1)

What does the source list for `COc1c(C)c2c(c(OC)c1OC)C(=O)[C@]1(OC2)OCc2c(C)c(OC)c(OC)c(OC)c21`?
pIC50 (K562): < 4.30; pIC50 [1]: < 4.30

With `COc1c(C)c2c(c(OC)c1OC)C(=O)[C@@]1(OC2)OCc2c(C)c(OC)c(OC)c(OC)c21` as the molecule, how does the pIC50 (Influenza A virus) read?
The pIC50 was 3.83.

And the pIC50 (K562)?
Its pIC50 is < 4.30.

And the pIC50 [1]?
The pIC50 was < 4.30.

With `COc1c(C)c2c(c(OC)c1OC)C(=O)C1(OC2)OCc2c(C)c(OC)c(OC)c(OC)c21` (racemic) as the molecule, how does the pIC50 (K562) read?
The pIC50 was < 4.30.

What about the pIC50 [1] of the same molecule?
The pIC50 was < 4.30.

With `NC(=O)c1ncn([C@@H]2O[C@H](CO)[C@@H](O)[C@H]2O)n1` [RIBAVIRIN] as the molecule, how does the pIC50 (Influenza A virus) read?
The pIC50 was 4.00.
